What all share (assay type): biochemical
Experiment [1] deals with T1, human Src enzyme (Homo sapiens, UniProt P12931).
T1 construct: purchased Carna Biosciences, Inc. 08-173
Put plainly: Src enzyme inhibitory activity (time-resolved fluorometry, biotinylated peptide phosphorylation). The following applies: read-out: SRC_IC50. The procedure, abridged: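 Compounds were tested for blocking tyrosine phosphorylation of a biotinylated peptide substrate by recombinant human Src. Phosphorylated product was quantified by time-resolved fluorometry using europium cryptate and XL665 conjugates, and IC50 was calculated against the compound-free control.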

The target of experiment [2] is T2, human Yes1 enzyme (Homo sapiens, UniProt P07947).
T2 construct: made in house
Put plainly: Yes1 enzyme inhibitory activity (time-resolved fluorometry, biotinylated peptide phosphorylation). Conditions: read-out: YES_IC50. The gist of the method: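 Inhibition was expressed against a compound-free control to give IC50, using TR-FRET read-out (Eu-cryptate anti-pTyr antibody, streptavidin-XL665).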

Experiment [3] addresses T3, human Lck enzyme (Homo sapiens, UniProt P06239).
T3 construct: purchased Carna Biosciences, Inc. 08-170
Put plainly: Lck enzyme inhibitory activity (time-resolved fluorometry, biotinylated peptide phosphorylation). Conditions: read-out: LCK_IC50. The gist of the method:
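Readout pairs a europium cryptate-labelled anti-phosphotyrosine antibody with XL665-streptavidin, measured by time-resolved fluorescence. IC50 derived from percent inhibition against untreated controls.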

The mark [4] stands for this setting: biotinylated peptide phosphorylation.

The text below walks through data of US10479780B2, “Aminopyrazole derivatives” (Chugai Seiyaku Kabushiki Kaisha, priority 2015, dated 2019).

Where two headings read alike, the source gives them in different places.

T3 sequence (P06239 whole entry): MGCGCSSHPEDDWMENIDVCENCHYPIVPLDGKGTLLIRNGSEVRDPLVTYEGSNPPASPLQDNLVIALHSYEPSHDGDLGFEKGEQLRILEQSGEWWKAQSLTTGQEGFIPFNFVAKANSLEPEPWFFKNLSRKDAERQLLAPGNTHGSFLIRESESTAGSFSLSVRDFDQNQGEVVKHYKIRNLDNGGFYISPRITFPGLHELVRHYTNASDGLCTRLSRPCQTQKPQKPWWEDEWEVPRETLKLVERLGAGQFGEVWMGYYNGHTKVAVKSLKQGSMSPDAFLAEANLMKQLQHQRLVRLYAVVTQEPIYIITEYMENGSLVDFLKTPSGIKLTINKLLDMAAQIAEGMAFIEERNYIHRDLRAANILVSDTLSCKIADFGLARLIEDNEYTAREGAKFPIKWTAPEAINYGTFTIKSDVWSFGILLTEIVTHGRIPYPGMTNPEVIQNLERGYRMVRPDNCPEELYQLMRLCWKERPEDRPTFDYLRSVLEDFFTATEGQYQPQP
T1 sequence (P12931 whole entry): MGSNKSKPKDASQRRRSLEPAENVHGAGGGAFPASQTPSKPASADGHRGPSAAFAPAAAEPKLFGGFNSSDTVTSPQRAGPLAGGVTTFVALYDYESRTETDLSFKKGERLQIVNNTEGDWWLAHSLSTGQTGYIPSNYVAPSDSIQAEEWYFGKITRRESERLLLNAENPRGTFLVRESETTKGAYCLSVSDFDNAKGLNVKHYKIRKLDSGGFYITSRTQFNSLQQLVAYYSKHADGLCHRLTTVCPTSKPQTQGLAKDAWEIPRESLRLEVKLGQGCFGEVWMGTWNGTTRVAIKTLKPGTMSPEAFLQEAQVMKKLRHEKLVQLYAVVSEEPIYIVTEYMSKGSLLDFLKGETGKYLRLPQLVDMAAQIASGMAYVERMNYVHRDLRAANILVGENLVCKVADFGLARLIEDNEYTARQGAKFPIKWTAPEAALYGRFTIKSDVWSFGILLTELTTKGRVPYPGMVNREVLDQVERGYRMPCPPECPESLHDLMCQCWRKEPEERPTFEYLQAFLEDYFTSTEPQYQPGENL
T2 sequence (P07947 whole entry): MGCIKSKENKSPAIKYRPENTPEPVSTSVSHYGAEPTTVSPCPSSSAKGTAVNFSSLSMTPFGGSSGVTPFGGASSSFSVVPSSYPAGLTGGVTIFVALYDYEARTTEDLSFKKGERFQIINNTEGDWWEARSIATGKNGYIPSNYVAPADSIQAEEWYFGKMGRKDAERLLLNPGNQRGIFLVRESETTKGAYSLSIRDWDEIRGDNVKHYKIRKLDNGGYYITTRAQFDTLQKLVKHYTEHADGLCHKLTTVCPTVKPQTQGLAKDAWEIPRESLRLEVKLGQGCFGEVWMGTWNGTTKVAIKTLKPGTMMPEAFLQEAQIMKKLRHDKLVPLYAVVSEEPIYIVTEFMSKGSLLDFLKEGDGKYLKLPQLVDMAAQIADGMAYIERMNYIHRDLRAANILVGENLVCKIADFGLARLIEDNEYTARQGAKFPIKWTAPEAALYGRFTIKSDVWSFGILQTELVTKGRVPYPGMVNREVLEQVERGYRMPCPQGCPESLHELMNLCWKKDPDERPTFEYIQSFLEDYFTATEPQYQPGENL

Turning to `Nc1c(C(=O)c2cc3cc(F)c(NS(=O)(=O)C4CC4)cc3[nH]2)cnn1-c1c(F)cc(Oc2cccc(F)c2F)cc1F` [Example 5-1-031, N-[2-[5-amino-1-[4-(2,3-difluorophenoxy)-2,6-difluorophenyl]pyrazole-4-carbonyl]-5-fluoro-1H-indol-6-yl]cyclopropanesulfonamide], the IC50 worked out at 220 nM in experiment [1], 4.1 nM in experiment [2] and 34 nM in experiment [3].

In the case of `Cc1cc2cc(C(=O)c3cnn(-c4cnc(Oc5c(F)cccc5F)cc4C)c3N)[nH]c2cc1N1C(=O)NC(C)(C(F)(F)F)C1=O` (stereo not drawn) [Example 5-1-429, 3-[2-[5-amino-1-[6-(2,6-difluorophenoxy)-4-methylpyridin-3-yl]pyrazole-4-carbonyl]-5-methyl-1H-indol-6-yl]-5-methyl-5-(trlfluoromethyl)imidazolidine-2,4-dione], the IC50 turned out to be 190 nM in experiment [1] (setting [4]), 7.5 nM in experiment [2] (setting [4]) and 25 nM in experiment [3] (setting [4]).

Consider `Cc1cc2cc(C(=O)c3cnn(-c4cnc(Oc5ccccc5F)cc4C)c3N)[nH]c2cc1NS(=O)(=O)C1CCOCC1` [Example 5-1-333, N-[2-[5-amino-1-[6-(2-fluorophenoxy)-4-methylpyridin-3-yl]pyrazole-4-carbonyl]-5-methyl-1H-indol-6-yl]oxane-4-sulfonamide], for which the IC50 in experiment [1] turned out to be 140 nM; in experiment [2], 2 nM; in experiment [3] it was 19 nM.

Consider `Cc1cc(Oc2c(F)cccc2F)ncc1-n1ncc(C(=O)c2cc3cc(OCC(F)F)c(NS(=O)(=O)c4cccc(Cl)c4)cc3[nH]2)c1N` [Example 5-1-383, N-[2-[5-amino-1-[6-(2,6-difluorophenoxy)-4-methylpyridin-3-yl]pyrazole-4-carbonyl]-5-(2,2-difluoroethoxy)-1H-indol-6-yl]-3-chlorobenzenesulfonamide], for which the IC50 in experiment [1] came out at 630 nM; in experiment [2], 9.2 nM; in experiment [3] it was 270 nM.

As for `Cc1cc(Oc2ccccc2F)ncc1-n1ncc(C(=O)c2cc3cc(F)c(NS(=O)(=O)c4cccc(Cl)c4)cc3[nH]2)c1N` [Example 5-1-560, N-[2-[5-amino-1-[6-(2-fluorophenoxy)-4-methylpyridin-3-yl]pyrazole-4-carbonyl]-5-fluoro-1H-indol-6-yl]-3-chlorobenzenesulfonamide], the IC50 in experiment [1] (setting [4]) was 2400 nM; in experiment [2] (setting [4]) it was 16 nM; in experiment [3] (setting [4]), 690 nM.

As to `Cc1cc(Oc2c(F)cccc2F)ncc1-n1ncc(C(=O)c2cc3cc(OC4CCN(C(C)C)CC4)c(N4C(=O)NC(C)(C)C4=O)cc3[nH]2)c1N` [Example 5-1-188, 3-[2-[5-amino-1-[6-(2,6-difluorophenoxy)-4-methylpyridin-3-yl]pyrazole-4-carbonyl]-5-(1-propan-2-ylpiperidin-4-yl)oxy-1H-indol-6-yl]-5,5-dimethylimidazolidine-2,4-dione], the IC50 worked out at 4.6 nM in experiment [1], 0.3 nM in experiment [2] and 1.2 nM in experiment [3].

Consider `Cc1cc(Oc2ccccc2F)ccc1-n1ncc(C(=O)c2cc3cc(OCC(F)F)c(-n4c(C)cc(=O)[nH]c4=O)cc3[nH]2)c1N` [Example 4-23-030, 1-[2-[5-amino-1-[4-(2-fluorophenoxy)-2-methylphenyl]pyrazole-4-carbonyl]-5-(2,2-difluoroethoxy)-1H-indol-6-yl]-6-methylpyrimidine-2,4-dione], for which the IC50 came out at 6.4 nM in experiment [1] (setting [4]), 1.4 nM in experiment [2] (setting [4]) and 3.8 nM in experiment [3] (setting [4]).

Take `Cc1cc2cc(C(=O)c3cnn(-c4cnc(Oc5c(F)cccc5F)cc4C)c3N)[nH]c2cc1N1C(=O)N[C@@H](Cc2ccccc2)C1=O` [Example 5-1-452, (5S)-3-[2-[5-amino-1-[6-(2,6-difluorophenoxy)-4-methylpyridin-3-yl]pyrazole-4-carbonyl]-5-methyl-1H-indol-6-yl]-5-benzylimidazolidine-2,4-dione]: the IC50 in experiment [1] (setting [4]) stood at 150 nM; in experiment [2] (setting [4]) it was 5.4 nM; in experiment [3] (setting [4]), 28 nM.

`Cc1cc(Oc2c(F)cccc2F)ncc1-n1ncc(C(=O)c2cc3cc(OCC(F)F)c(N4CCN(S(C)(=O)=O)CC4)cc3[nH]2)c1N` [Example 4-23-001, {5-amino-1-[6-(2,6-difluorophenoxy)-4-methylpyridin-3-yl]pyrazol-4-yl}-[5-(2,2-difluoroethoxy)-6-(4-methylsulfonylpiperazin-1-yl)-1H-indol-2-yl]methanone]: the IC50 in experiment [1] (setting [4]) amounted to 16 nM; in experiment [2] (setting [4]) it was 1.3 nM; in experiment [3] (setting [4]), 8.2 nM.

`Cc1cc(Oc2ccccc2F)ccc1-n1ncc(C(=O)c2cc3cc(F)c(N4C(=O)NC5(CC5)C4=O)cc3[nH]2)c1N` [Example 5-1-375, 6-[2-[5-amino-1-[4-(2-fluorophenoxy)-2-methylphenyl]pyrazole-4-carbonyl]-5-fluoro-1H-indol-6-yl]-4,6-diazaspiro[2.4]heptane-5,7-dione]: the IC50 in experiment [1] stood at 24 nM; in experiment [2], 2 nM; in experiment [3], 7.1 nM.

Consider `Cc1cc(Oc2ccccc2F)ncc1-n1ncc(C(=O)c2cc3cc(OC(F)F)c(N4CCOC4=O)cc3[nH]2)c1N` [Example 4-25-018, 3-[2-[5-amino-1-[6-(2-fluorophenoxy)-4-methylpyridin-3-yl]pyrazole-4-carbonyl]-5-(difluoromethoxy)-1H-indol-6-yl]-1,3-oxazolidin-2-one], for which the figures for the IC50 in experiment [1] (setting [4]), in experiment [2] (setting [4]) and in experiment [3] (setting [4]) were 20 nM, 0.72 nM and 1.7 nM, respectively.

Regarding `Cc1cc(Oc2ccccc2Cl)cc(F)c1-n1ncc(C(=O)c2cc3cc(Cl)c(NS(C)(=O)=O)cc3[nH]2)c1N` [Example 4-2-082, N-[2-[5-amino-1-[4-(2-chlorophenoxy)-2-fluoro-6-methylphenyl]pyrazole-4-carbonyl]-5-chloro-1H-indol-6-yl]methanesulfonamide], the results for the IC50 in experiment [1] (setting [4]), in experiment [2] (setting [4]) and in experiment [3] (setting [4]) were 310 nM, 22 nM and 160 nM, respectively.

On to `Cc1cc(Oc2ccccc2F)ccc1-n1ncc(C(=O)c2cc3cc(F)c(N4C(=O)[C@@H]5CCCN5C4=O)cc3[nH]2)c1N` [Example 5-1-448, (7aS)-2-[2-[5-amino-1-[4-(2-fluorophenoxy)-2-methylphenyl]pyrazole-4-carbonyl]-5-fluoro-1H-indol-6-yl]-5,6,7,7a-tetrahydropyrrolo [1,2-c]imidazole-1,3-dione], for which the results for the IC50 in experiment [1] (setting [4]), in experiment [2] (setting [4]) and in experiment [3] (setting [4]) were 23 nM, 1.2 nM and 3.9 nM, respectively.

Consider `Cc1cc(Oc2ccccc2F)cc(F)c1-n1ncc(C(=O)c2cc3cc(OC(F)F)c(NS(=O)(=O)C4CC4)cc3[nH]2)c1N` [Example 4-24-005, N-[2-[5-amino-1-[2-fluoro-4-(2-fluorophenoxy)-6-methylphenyl]pyrazole-4-carbonyl]-5-(difluoromethoxy)-1H-indol-6-yl]cyclopropanesulfonamide], for which the IC50 in experiment [1] (setting [4]) is 240 nM; in experiment [2] (setting [4]), 4.7 nM; in experiment [3] (setting [4]) it was 47 nM.

Consider `Cc1cc(-n2ncc(C(=O)c3cc4cc(OC5CCN(C6CCC6)CC5)c(N)cc4[nH]3)c2N)ccc1Oc1ccccc1F` [Example 5-1-232, [6-amino-5-(1-cyclobutylpiperidin-4-yl)oxy-1H-indol-2-yl]-[5-amino-1-[4-(2-fluorophenoxy)-3-methylphenyl]pyrazol-4-yl]methanone], for which the IC50 in experiment [1] is 230 nM; in experiment [2] it was 1.4 nM; in experiment [3], 30 nM.

In the case of `Cc1cc(Oc2c(F)cccc2F)ncc1-n1ncc(C(=O)c2cc3cc(OCC(F)F)c(NS(=O)(=O)c4ccc(F)cc4)cc3[nH]2)c1N` [Example 5-1-297, N-[2-[5-amino-1-[6-(2,6-difluorophenoxy)-4-methylpyridin-3-yl]pyrazole-4-carbonyl]-5-(2,2-difluoroethoxy)-1H-indol-6-yl]-4-fluorobenzenesulfonamide], the IC50 worked out at 580 nM in experiment [1], 8.5 nM in experiment [2] and 46 nM in experiment [3].

Consider `Cc1cc2cc(C(=O)c3cnn(-c4cnc(Oc5ccc(F)cc5)cc4C)c3N)[nH]c2cc1NS(=O)(=O)CCCF` [Example 4-2-076, N-[2-[5-amino-1-[6-(4-fluorophenoxy)-4-methylpyridin-3-yl]pyrazole-4-carbonyl]-5-methyl-1H-indol-6-yl]-3-fluoropropane-1-sulfonamide], for which the figures for the IC50 in experiment [1] (setting [4]), in experiment [2] (setting [4]) and in experiment [3] (setting [4]) were 130 nM, 18 nM and 62 nM, respectively.

Turning to `Cc1cc(Oc2ccccc2F)ccc1-n1ncc(C(=O)c2cc3cc(F)c(N4C(=O)CNC4=O)cc3[nH]2)c1N` [Example 5-1-445, 3-[2-[5-amino-1-[4-(2-fluorophenoxy)-2-methylphenyl]pyrazole-4-carbonyl]-5-fluoro-1H-indol-6-yl]imidazolidine-2,4-dione], the IC50 in experiment [1] (setting [4]) came to 12 nM; in experiment [2] (setting [4]), 0.54 nM; in experiment [3] (setting [4]) it was 3.1 nM.

In the case of `Cc1cc(Oc2ccccc2F)cc(F)c1-n1ncc(C(=O)c2cc3cc(OC(F)F)c(NC4CN(S(C)(=O)=O)C4)cc3[nH]2)c1N` [Example 4-23-024, [5-amino-1-[2-fluoro-4-(2-fluorophenoxy)-6-methylphenyl]pyrazol-4-yl]-[5-(difluoromethoxy)-6-[(1-methylsulfonylazetidin-3-yl)amino]-1H-indol-2-yl]methanone], the IC50 came to 53 nM in experiment [1] (setting [4]), 7.2 nM in experiment [2] (setting [4]) and 13 nM in experiment [3] (setting [4]).

Regarding `Cc1cc2cc(C(=O)c3cnn(-c4cnc(Oc5ccccc5F)cc4C)c3N)[nH]c2cc1NS(=O)(=O)c1cncc(C(F)(F)F)c1` [Example 5-1-487, N-[2-[5-amino-1-[6-(2-fluorophenoxy)-4-methylpyridin-3-yl]pyrazole-4-carbonyl]-5-methyl-1H-indol-6-yl]-5-(trifluoromethyl) pyridine-3-sulfonamide], the results for the IC50 in experiment [1] (setting [4]), in experiment [2] (setting [4]) and in experiment [3] (setting [4]) were 510 nM, 11 nM and 110 nM, respectively.
